Results on nine molecules are retold here after ChEMBL document CHEMBL4364244, “New insights into the biological activities of Chrysanthemum morifolium: Natural flavonoids alleviate diabetes by targeting α-glucosidase and the PTP-1B signaling pathway” (Eur J Med Chem, 2019).

One assay deals with CHO-K1. The assay can be described thus: Decrease in PTP1B protein expression in CHOK1 cells at 20 uM measured after 48 hrs by Western blot analysis. The format is functional, cell-based. To be noted: Cricetulus griseus.
Assay [1] addresses T1, Tyrosine-protein phosphatase non-receptor type 1 (Homo sapiens) (UniProt P18031).
T1 sequence (whole entry): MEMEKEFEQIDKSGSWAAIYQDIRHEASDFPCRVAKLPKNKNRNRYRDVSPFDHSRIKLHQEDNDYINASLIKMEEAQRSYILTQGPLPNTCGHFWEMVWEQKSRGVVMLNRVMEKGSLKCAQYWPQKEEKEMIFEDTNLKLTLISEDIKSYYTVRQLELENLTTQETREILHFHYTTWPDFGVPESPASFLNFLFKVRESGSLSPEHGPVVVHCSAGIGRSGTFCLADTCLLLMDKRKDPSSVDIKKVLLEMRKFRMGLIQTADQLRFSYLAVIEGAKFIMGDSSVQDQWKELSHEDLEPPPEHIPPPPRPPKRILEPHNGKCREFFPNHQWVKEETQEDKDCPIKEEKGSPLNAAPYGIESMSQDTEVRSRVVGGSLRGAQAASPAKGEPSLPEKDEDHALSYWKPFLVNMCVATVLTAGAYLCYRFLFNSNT
The assay can be described thus: Inhibition of human recombinant full length PTP1B expressed in Escherichia coli cells at 1 uM using pNPP as substrate preincubated with enzyme for 5 mins followed by incubation with substrate for 10 mins by spectrophotometry analysis relative to control.

Assay [2] is filed under the species Cricetulus griseus. The assay can be described thus: Inhibition of PTP1B in CHOK1 cells assessed as increase in phosphorylation of GSK-3beta at Ser9 residue at 20 uM measured after 48 hrs by Western blot analysis. In kind it is cell-based. On the technique in general: Immunoblotting shows a protein as a band on a membrane.
The target in assay [3] is T1, Tyrosine-protein phosphatase non-receptor type 1 (Homo sapiens). Description: Inhibition of human recombinant full length PTP1B expressed in Escherichia coli cells at 10 uM using pNPP as substrate preincubated with enzyme for 5 mins followed by incubation with substrate for 10 mins by spectrophotometry analysis relative to control.
The test system of assay [4] is INS1. The assay can be described thus: Increase in insulin secretion in high glucose-treated rat INS-1 cells preincubated with compound and 40 mM glucose for 48 hrs followed by stimulation with KRB buffer containing 5 to 30 mM glucose for 60 mins and measured by ELISA. In kind it is functional, cell-based. On the technique in general: In an ELISA, binding on a coated surface is turned into a signal by an enzyme label.

The nature of assay [5]: Inhibition of baker's yeast alpha-glucosidase using p-nitrophenyl alpha-D-glucopyranoside as substrate measured after 30 mins by spectrophotometry analysis. Set-up: species or system Saccharomyces cerevisiae.
For assay [6], the system named is HepG2. Description: Increase in glucose consumption in human HepG2 cells assessed as glucose concentration in the medium treated at 0.4 to 10 uM after incubating cells in the medium containing glucose measured after 24 hrs by glucose oxidase method. In kind it is functional, cell-based.
The target in assay [7] is T1, Tyrosine-protein phosphatase non-receptor type 1 (Homo sapiens). Description: Inhibition of human recombinant full length PTP1B expressed in Escherichia coli cells at 5 uM using pNPP as substrate preincubated with enzyme for 5 mins followed by incubation with substrate for 10 mins by spectrophotometry analysis relative to control.
The species entered for assay [8] is Cricetulus griseus. Description: Inhibition of PTP1B in CHOK1 cells assessed as increase in phosphorylation of AKT at Ser473 residue at 20 uM measured after 48 hrs by Western blot analysis. The format is cell-based.
Assay [9] deals with HepG2. Description: Increase in glucose consumption in human HepG2 cells assessed as glucose concentration in the medium treated at 500 uM after incubating cells in the medium containing glucose measured after 24 hrs by glucose oxidase method. In kind it is functional, cell-based.
Assay [10] deals with INS1. Description: Increase in insulin secretion in high glucose-treated rat INS-1 cells at 0.15 uM preincubated with compound and 40 mM glucose for 48 hrs followed by stimulation with KRB buffer containing 5 to 30 mM glucose for 60 mins and measured by ELISA. In kind it is functional, cell-based.
Assay [11] relates to Mus musculus. The assay can be described thus: Antihyperlipidemic activity in STZ-induced type-2 diabetes Kunming mouse model assessed as serum total cholesterol level at 50 mg/kg, po for 4 weeks (reference value: 9.75 +/-0.11 mM). In kind it is functional.
Assay [12] relates to Mus musculus. Description: Antihyperlipidemic activity in STZ-induced type-2 diabetes Kunming mouse model assessed as serum triglyceride level at 50 mg/kg, po for 4 weeks (reference value: 3.08 +/- 0.84 mM). In kind it is functional.
Assay [13] concerns Mus musculus. The assay can be described thus: Antihyperlipidemic activity in STZ-induced type-2 diabetes Kunming mouse model assessed as decrease in serum total cholesterol level at 100 mg/kg, po for 4 weeks relative to diabetic control. In kind it is functional. To be noted: 672 h.
The subject of assay [14] is Mus musculus. The assay can be described thus: Antihyperlipidemic activity in STZ-induced type-2 diabetes Kunming mouse model assessed as serum total cholesterol level at 100 mg/kg, po for 4 weeks (reference value: 9.75 +/-0.11 mM). The format is functional.
Assay [15] has as its system Mus musculus. Description: Antidiabetic activity in STZ-induced type-2 diabetes Kunming mouse model assessed as increase in glucose tolerance at 50 to 100 mg/kg, po for 13 days followed by overnight fasting and later orally treated with glucose for 60 mins and measured after 120 mins by OGTT. The format is functional, organism-based.
Assay [16] has as its system Mus musculus. Description: Antidiabetic activity in STZ-induced type-2 diabetes Kunming mouse model assessed as decrease in fasting blood glucose level at 50 to 100 mg/kg, po administered for 4 weeks by glucometric analysis. In kind it is functional, organism-based.
In assay [17] the test system is Mus musculus. Description: Antidiabetic activity in STZ-induced type-2 diabetes Kunming mouse model assessed as decrease in postprandial glucose level at 50 mg/kg, po for 2 hrs by glucometer analysis. The format is functional, organism-based.
Assay [18] concerns Mus musculus. The assay can be described thus: Antihyperlipidemic activity in STZ-induced type-2 diabetes Kunming mouse model assessed as decrease in serum total cholesterol level at 50 mg/kg, po for 4 weeks relative to diabetic control. Conditions: 672 h. The format is functional.
In assay [19] the test system is Mus musculus. The assay can be described thus: Antihyperlipidemic activity in STZ-induced type-2 diabetes Kunming mouse model assessed as serum triglyceride level at 100 mg/kg, po for 4 weeks (reference value: 3.08 +/- 0.84 mM). The format is functional.
The test system of assay [20] is Mus musculus. Description: Antidiabetic activity in STZ-induced type-2 diabetes Kunming mouse model assessed as decrease in blood glucose AUC at 50 to 100 mg/kg, po administered for 4 weeks by glucometric analysis. In kind it is functional, organism-based.
Assay [21] deals with Mus musculus. The assay can be described thus: Antihyperlipidemic activity in STZ-induced type-2 diabetes Kunming mouse model assessed as decrease in serum triglyceride level at 50 mg/kg, po for 4 weeks relative to diabetic control. The format is functional. Conditions: 672 h.
The test system of assay [22] is Mus musculus. The assay can be described thus: Antidiabetic activity in STZ-induced type-2 diabetes Kunming mouse model assessed as decrease in blood glucose AUC at 100 mg/kg, po for 14 days followed by overnight fasting and later orally treated with maltose for 60 mins and measured after 120 mins by OMTT. The format is functional.
Assay [23] has as its system Mus musculus. Description: Antidiabetic activity in STZ-induced type-2 diabetes Kunming mouse model assessed as decrease in blood glucose AUC at 50 mg/kg, po for 14 days followed by overnight fasting and later orally treated with maltose for 60 mins and measured after 120 mins by OMTT. In kind it is functional.
The test system of assay [24] is Mus musculus. The assay can be described thus: Antihyperlipidemic activity in STZ-induced type-2 diabetes Kunming mouse model assessed as decrease in serum triglyceride level at 100 mg/kg, po for 4 weeks relative to diabetic control. In kind it is functional. To be noted: 672 h.

SMILES strings stand for the structures. Calls of active or inactive are those of the source. No cut-off for these calls is given here.

In general, inhibition refers to the change of the read-out against control, counted positive when it falls. What is called IC50 is the concentration needed to halve the response being measured. Low readings indicate inhibition by little substance, high ones a need for much substance. As for `COc1ccc(-c2cc(=O)c3c(O)cc(O[C@@H]4O[C@H](CO)[C@@H](O)[C@H](O)[C@H]4O)cc3o2)cc1O`, the inhibition entry in the assay on CHO-K1 was “Active”. Moreover, the results for the inhibition in [1], in assay [3] and in assay [7] were 27.7%, 29.8% and 23.4%, respectively. Besides, the result in the assay listed under Cricetulus griseus [2], with HepG2 [6] and in the assay filed under Cricetulus griseus [8] was Active. For the same molecule, in the assay with INS1 [4], the Activity entry is “Dose-dependent effect”. The IC50 in [5] is > 100 µM.
Take `CN(C)C(=N)NC(=N)N`: the result with HepG2 [9] was Active.
On to `COc1ccc(-c2cc(=O)c3c(O)cc(O)cc3o2)cc1O`, for which the inhibition entry with CHO-K1 is “Active”. Further, the inhibition in [1] was 22.8%; in [3], 28.3%; in [7], 27.1%. The result in the assay listed under Cricetulus griseus [2], in the assay on HepG2 [6] and in the assay listed under Cricetulus griseus [8] was Active.
As to `COc1ccc(Cl)cc1C(=O)NCCc1ccc(S(=O)(=O)NC(=O)NC2CCCCC2)cc1`, the result with INS1 [10] was Active.
As to `COc1ccc(-c2cc(=O)c3c(O)cc(O)cc3o2)cc1` [ACACETIN], the inhibition result with CHO-K1 is “Active”. Also, the inhibition in assay [1] was 38.2%; in [3], 32%; in assay [7], 36.3%. In addition, the result in the assay filed under Cricetulus griseus [2], with HepG2 [6] and in the assay listed under Cricetulus griseus [8] was Active. The IC50 in assay [5] was > 100 µM.
Consider `C[C@H]1O[C@H](O[C@H]2[C@H](O)[C@@H](O)[C@@H](O[C@H]3[C@H](O)[C@@H](O)C(O)O[C@@H]3CO)O[C@@H]2CO)[C@H](O)[C@@H](O)[C@@H]1N[C@H]1C=C(CO)[C@@H](O)[C@H](O)[C@H]1O` (some centres not stated) [ACARBOSE], for which the Activity is given as 9.61 mM with Mus musculus [11] and 3.02 mM in the assay with Mus musculus [12]. In assay [5], the IC50 came out at 236 µM.
Broadly, the inhibition in vivo is the change of the read-out against control, counted positive when it falls. On to `O=c1cc(-c2ccc(O)cc2)oc2cc(O)cc(O)c12` [APIGENIN], for which, in the assay with Mus musculus [13], the inhibition in vivo at 100 mg/kg was 15.7%. Also, the inhibition result with CHO-K1, in the assay on Mus musculus [16], in the assay on Mus musculus [17] and in the assay on Mus musculus [20] was “Active” throughout. Further, the Activity in the assay on Mus musculus [14] is reported as 8.22 mM; in the assay with Mus musculus [11], 7.6 mM; in the assay on Mus musculus [12], 3.13 mM; with Mus musculus [19], 3.06 mM. For the same molecule, the result in the assay with Mus musculus [15], in the assay listed under Cricetulus griseus [2], in the assay on HepG2 [6] and in the assay listed under Cricetulus griseus [8] was Active. Further, the inhibition in assay [1] turned out to be 29.8%; in assay [3], 39.2%; in assay [7], 20.2%. For the same molecule, inhibition in assay [5] was half-maximal at 9.04 µM (IC50). Besides, the inhibition in vivo at 50 mg/kg with Mus musculus [18] came to 22.1%.
In the case of `COc1ccc(-c2cc(=O)c3c(O)cc(O[C@@H]4O[C@H](CO[C@@H]5O[C@@H](C)[C@H](O)[C@@H](O)[C@H]5O)[C@@H](O)[C@H](O)[C@H]4O)cc3o2)cc1O` [DIOSMIN], the values for the inhibition in vivo at 50 mg/kg in the assay on Mus musculus [21] and in the assay with Mus musculus [23] were 33.8% and 11.2%, respectively. Further, the inhibition in vivo at 100 mg/kg in the assay with Mus musculus [13] was 8.3%; in the assay on Mus musculus [22] it was 13.5%; in the assay with Mus musculus [24], 27.3%. The inhibition entry in the assay with CHO-K1, with Mus musculus [16], in the assay with Mus musculus [17] and in the assay on Mus musculus [20] was “Active” each time. The Activity is 8.94 mM with Mus musculus [14]; 9.18 mM in the assay on Mus musculus [11]; “Dose-dependent effect” in the assay on INS1 [4]; 2.04 mM in the assay on Mus musculus [12]; 2.24 mM in the assay with Mus musculus [19]. In addition, the outcome in the assay on Mus musculus [15], in the assay listed under Cricetulus griseus [2], with HepG2 [6] and in the assay listed under Cricetulus griseus [8] was Active. The inhibition in assay [1] came to 36.3%; in assay [3], 30.5%; in [7] it was 32.8%. In assay [5], the IC50 is > 100 µM.
In the case of `O=c1cc(-c2ccc(O)c(O)c2)oc2cc(O)cc(O)c12` [LUTEOLIN], the inhibition entry in the assay with CHO-K1 is “Active”. Besides, the inhibition in assay [1] came to 19.8%; in assay [3], 39.9%; in assay [7] it was 40.8%. The result in the assay filed under Cricetulus griseus [2], in the assay on HepG2 [6] and in the assay filed under Cricetulus griseus [8] was Active. The same molecule showed an IC50 in [5] of 16.6 µM.
